Source: ChEMBL document CHEMBL1201862, “PubChem BioAssay data set” (2004)
Activity calls are given as the source filed them.

How the values were obtained:
[1] = microbe, parasite or virus in culture; assay type: functional; settings: Mycobacterium tuberculosis
[2] = molecular target: T1, Calpain-2 catalytic subunit (Sus scrofa, UniProt P43367); assay: m-calpain protease blockers, concentration series – biochemical, fluorogenic peptide substrate, dose response (AID 1420); assay type: functional
T1 sequence (P43367 whole entry): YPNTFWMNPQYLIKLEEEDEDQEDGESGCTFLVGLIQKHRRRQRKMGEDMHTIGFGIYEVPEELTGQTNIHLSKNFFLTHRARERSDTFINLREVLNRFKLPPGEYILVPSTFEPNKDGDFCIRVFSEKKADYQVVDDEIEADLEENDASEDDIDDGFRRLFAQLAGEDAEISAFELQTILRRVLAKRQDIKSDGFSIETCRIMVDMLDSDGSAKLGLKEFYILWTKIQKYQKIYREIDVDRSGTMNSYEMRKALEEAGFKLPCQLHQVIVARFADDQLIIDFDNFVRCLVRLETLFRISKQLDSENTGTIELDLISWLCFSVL

[3] = molecular target: Heat shock protein HSP 90-alpha (Homo sapiens, UniProt P07900); assay type: functional, organism-based
[4] = molecular target: T2, Fatty acid synthase (Homo sapiens, UniProt P49327); assay: inhibition of human FAS-TE enzyme activity – biochemical, endpoint fluorescence intensity, uHTS hits, dose response (AID 624327); assay type: functional;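 further: fluorescence from hydrolysis of an O-methyl fluorescein acyl ester substrate by the enzyme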
[5] = molecular target: T2, Fatty acid synthase; assay: inhibition of human FAS-TE enzyme activity – biochemical, kinetic fluorescence intensity, dose response (AID 624326); assay type: functional;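 further: rate of fluorescence rise from hydrolysis of a fluorogenic O-methyl fluorescein ester substrate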
[6] = molecular target: T3, Histone-lysine N-methyltransferase NSD2 (Homo sapiens, UniProt O96028); assay type: biochemical
T3 sequence (O96028 whole entry): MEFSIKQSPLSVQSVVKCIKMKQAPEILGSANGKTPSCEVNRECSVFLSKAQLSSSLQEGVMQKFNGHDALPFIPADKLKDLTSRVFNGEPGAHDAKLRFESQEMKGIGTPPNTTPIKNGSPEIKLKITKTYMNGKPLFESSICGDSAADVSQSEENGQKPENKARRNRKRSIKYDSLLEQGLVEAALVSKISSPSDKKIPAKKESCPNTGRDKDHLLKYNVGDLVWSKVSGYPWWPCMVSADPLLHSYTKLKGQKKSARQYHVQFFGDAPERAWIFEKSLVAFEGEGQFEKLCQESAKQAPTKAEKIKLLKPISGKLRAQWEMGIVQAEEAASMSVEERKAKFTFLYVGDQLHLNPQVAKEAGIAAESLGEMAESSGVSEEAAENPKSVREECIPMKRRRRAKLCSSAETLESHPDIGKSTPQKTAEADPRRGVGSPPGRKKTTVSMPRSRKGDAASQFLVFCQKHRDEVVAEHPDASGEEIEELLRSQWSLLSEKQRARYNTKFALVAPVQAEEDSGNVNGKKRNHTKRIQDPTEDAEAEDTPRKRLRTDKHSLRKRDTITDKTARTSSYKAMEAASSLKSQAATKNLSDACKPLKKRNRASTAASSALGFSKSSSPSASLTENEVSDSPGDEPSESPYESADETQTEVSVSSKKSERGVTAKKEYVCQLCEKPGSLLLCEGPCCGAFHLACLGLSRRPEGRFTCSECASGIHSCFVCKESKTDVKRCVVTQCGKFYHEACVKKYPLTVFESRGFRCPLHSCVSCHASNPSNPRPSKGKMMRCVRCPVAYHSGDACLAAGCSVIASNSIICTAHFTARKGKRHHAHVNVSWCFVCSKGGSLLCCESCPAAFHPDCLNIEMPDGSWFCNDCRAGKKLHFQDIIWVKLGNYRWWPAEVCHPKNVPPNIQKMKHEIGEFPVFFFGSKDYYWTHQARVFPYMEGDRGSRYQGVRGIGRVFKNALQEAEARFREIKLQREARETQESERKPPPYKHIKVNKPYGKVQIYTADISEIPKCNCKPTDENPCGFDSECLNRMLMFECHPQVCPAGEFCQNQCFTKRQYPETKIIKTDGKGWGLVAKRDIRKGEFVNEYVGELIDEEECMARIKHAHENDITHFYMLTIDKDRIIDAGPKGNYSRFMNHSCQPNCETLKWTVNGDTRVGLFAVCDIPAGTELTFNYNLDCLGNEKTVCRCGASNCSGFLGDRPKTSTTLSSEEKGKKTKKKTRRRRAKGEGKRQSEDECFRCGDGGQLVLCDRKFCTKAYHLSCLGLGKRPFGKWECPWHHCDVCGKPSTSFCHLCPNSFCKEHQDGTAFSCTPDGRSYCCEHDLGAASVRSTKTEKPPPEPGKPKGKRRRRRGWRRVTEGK

[7] = test system: HEK293; assay: inhibition of NOD1-driven NF-kB reporter – cell-based, luminescence, uHTS, primary screen (AID 1578); assay type: functional; settings: Homo sapiens
[8] = test system: HEK293; assay: cells; assay type: functional, cell-based; settings: Homo sapiens
[9] = test system: HEK293; assay: cells; assay type: functional, cell-based; settings: Homo sapiens; remark: listed apart in the source
[10] = test system: HEK293; assay: NOD2 signaling inhibitors in MDP-stimulated cells, cell-based, uHTS, luminescence (AID 2001); assay type: functional; settings: Homo sapiens
[11] = molecular target: Dual specificity tyrosine-phosphorylation-regulated kinase 1A (Rattus norvegicus, UniProt Q63470); assay type: biochemical, Homo sapiens
[12] = viability of PTEN-deleted HCT116 cells – cell-based, HCT116 PTEN knockout, dose response (AID 1047); assay type: functional;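 further: HCT116 colon tumor cells with PTEN knocked out; cells exposed to compound for 60 hours before readout; potency for loss of cell viability measured by luminescence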
[13] = viability of HCT116 lacking mutant beta-catenin – cell-based, human colon tumor, dose response (AID 1045); assay type: functional;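 further: HCT116 colon tumor cells with beta catenin knocked out; cells exposed to compound for 60 hours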
[14] = molecular target: T4, Sentrin-specific protease 7 (Homo sapiens, UniProt Q9BQF6); assay type: functional;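 further: Luminescence-based dose-response confirmation of ultra-high-throughput screening hits, measuring inhibition of SENP7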
T4 sequence (Q9BQF6 whole entry): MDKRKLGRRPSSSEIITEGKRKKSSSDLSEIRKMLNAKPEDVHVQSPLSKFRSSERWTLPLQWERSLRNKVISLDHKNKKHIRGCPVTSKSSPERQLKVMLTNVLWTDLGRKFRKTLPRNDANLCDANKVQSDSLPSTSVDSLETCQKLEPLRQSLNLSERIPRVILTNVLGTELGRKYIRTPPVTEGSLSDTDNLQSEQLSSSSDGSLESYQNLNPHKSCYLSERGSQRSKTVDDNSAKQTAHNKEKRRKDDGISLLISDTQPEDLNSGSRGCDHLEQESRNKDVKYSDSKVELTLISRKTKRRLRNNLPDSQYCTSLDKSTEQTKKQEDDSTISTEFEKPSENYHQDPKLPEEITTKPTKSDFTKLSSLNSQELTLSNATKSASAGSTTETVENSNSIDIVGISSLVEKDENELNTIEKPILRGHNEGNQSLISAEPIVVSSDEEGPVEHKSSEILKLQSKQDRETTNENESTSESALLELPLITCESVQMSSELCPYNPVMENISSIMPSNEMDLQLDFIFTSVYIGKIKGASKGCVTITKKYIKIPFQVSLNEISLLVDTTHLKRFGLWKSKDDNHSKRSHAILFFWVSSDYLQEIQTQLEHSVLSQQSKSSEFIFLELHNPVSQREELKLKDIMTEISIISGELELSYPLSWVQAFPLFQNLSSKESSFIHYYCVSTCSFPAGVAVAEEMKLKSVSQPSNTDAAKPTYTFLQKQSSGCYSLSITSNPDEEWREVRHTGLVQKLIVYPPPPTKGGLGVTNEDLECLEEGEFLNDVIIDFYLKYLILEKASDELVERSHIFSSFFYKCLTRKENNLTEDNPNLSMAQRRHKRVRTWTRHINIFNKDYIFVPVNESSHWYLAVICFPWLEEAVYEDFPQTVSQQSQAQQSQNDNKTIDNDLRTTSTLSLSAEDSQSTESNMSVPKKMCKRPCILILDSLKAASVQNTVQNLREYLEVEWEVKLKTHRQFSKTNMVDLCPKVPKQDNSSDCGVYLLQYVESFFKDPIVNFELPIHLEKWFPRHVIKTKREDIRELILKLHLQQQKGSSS

[15] = molecular target: T5, Sentrin-specific protease 6 (Homo sapiens, UniProt Q9GZR1); assay type: functional;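 further: Luminescence-based dose-response confirmatory assay of SENP6 inhibition, following up an ultra-high-throughput screen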
T5 sequence (Q9GZR1 whole entry): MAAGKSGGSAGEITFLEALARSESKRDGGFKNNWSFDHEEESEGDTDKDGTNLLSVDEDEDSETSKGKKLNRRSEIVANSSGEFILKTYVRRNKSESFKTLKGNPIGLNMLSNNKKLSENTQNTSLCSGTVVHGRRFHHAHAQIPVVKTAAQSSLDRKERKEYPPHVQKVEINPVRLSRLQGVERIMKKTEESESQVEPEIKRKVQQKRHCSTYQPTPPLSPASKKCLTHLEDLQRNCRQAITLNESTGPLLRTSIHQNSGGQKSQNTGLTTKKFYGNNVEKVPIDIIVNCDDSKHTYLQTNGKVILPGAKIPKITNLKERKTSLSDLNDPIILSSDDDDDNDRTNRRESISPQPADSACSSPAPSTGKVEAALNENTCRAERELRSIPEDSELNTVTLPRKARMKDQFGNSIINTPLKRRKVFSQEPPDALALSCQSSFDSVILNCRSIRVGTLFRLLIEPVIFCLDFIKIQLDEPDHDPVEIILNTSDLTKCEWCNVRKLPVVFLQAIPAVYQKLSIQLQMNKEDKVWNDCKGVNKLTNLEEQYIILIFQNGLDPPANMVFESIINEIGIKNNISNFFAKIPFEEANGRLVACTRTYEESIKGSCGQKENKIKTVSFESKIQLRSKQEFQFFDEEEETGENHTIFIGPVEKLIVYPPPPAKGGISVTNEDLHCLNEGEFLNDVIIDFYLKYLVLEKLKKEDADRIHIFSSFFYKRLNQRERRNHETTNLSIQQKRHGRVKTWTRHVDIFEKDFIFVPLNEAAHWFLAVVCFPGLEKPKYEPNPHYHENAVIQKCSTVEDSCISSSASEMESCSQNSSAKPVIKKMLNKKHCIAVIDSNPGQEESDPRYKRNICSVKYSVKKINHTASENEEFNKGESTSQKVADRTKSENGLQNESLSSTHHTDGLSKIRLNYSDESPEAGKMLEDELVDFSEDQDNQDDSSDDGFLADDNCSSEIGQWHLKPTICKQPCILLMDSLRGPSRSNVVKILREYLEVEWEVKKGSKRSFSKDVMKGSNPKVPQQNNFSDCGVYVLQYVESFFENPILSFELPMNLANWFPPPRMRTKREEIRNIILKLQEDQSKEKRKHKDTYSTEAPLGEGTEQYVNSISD

[16] = molecular target: T6, Sentrin-specific protease 8 (Homo sapiens, UniProt Q96LD8); assay type: functional;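 further: luminescence read-out of SENP8 inhibition, dose-response confirmation following an ultra-high-throughput screen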
T6 sequence (Q96LD8 whole entry): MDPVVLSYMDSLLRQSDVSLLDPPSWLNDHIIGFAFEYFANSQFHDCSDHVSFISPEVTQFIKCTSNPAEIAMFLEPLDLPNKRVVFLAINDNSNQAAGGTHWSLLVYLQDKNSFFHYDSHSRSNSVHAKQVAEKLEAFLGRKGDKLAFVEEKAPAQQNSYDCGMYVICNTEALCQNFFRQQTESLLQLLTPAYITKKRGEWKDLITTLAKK

[17] = activation of miR-122 Renilla sensor silencing – cell-based, Huh7 psiCHECK-miR122, Renilla luciferase, cherry-picked, dose response (AID 651956); assay type: functional;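 further: huh7 hepatoma cells stably carrying a psiCHECK-2 miR-122 sensor plasmid; renilla luciferase signal reporting endogenous miR-122 activity after 48 h compound exposure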
[18] = molecular target: Paired box protein Pax-8 (Homo sapiens, UniProt Q06710); assay: PAX8 transcriptional activity inhibition in RMG-I – RMG-I cells, luciferase, cherry-pick, dose response (AID 687027); assay type: functional, cell-based;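 further: luciferase reporter driven by Pax8 target thyroperoxidase promoter measured by SteadyGlo luminescence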
[19] = blockers of HIV-1 envelope-mediated cell-cell fusion – cherry-pick, dose response (AID 652057); assay type: functional, cell-based
[20] = viability loss in CEM21 cells – cell-based, CellTiter-Glo luminescence, cherry-picked, cytotoxicity control for viral fusion inhibitor project, dose response (AID 652042); assay type: functional;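 further: potency for signal decrease meaning cytotoxicity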
[21] = blockers of HIV-1 ZM109 envelope-driven cell-cell fusion – HeLa effector, CEM target cells, luciferase, cherry-pick, dose response (AID 652058); assay type: functional, cell-based;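 further: luciferase signal from HIV-1 Env mediated cell-cell fusion of effector and target cells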
[22] = off-target signal loss in HeLa-CEM21 co-culture – HeLa F-luc CTL cells, cherry-picked, counter-screen for HIV-1 Env fusion inhibitor project, dose response (AID 652040); assay type: functional, cell-based;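 further: potency for signal decrease marking cytotoxic or nonspecific inhibition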
[23] = HIV-1 AD8 envelope cell-cell fusion blockers – cherry-pick, dose response (AID 652062); assay type: functional, cell-based;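 further: luciferase signal from cell-cell fusion driven by HIV-1 clade B AD8 Env; potency is for inhibitors of fusion seen as a drop in luminescence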

T2 sequence (P49327 whole entry): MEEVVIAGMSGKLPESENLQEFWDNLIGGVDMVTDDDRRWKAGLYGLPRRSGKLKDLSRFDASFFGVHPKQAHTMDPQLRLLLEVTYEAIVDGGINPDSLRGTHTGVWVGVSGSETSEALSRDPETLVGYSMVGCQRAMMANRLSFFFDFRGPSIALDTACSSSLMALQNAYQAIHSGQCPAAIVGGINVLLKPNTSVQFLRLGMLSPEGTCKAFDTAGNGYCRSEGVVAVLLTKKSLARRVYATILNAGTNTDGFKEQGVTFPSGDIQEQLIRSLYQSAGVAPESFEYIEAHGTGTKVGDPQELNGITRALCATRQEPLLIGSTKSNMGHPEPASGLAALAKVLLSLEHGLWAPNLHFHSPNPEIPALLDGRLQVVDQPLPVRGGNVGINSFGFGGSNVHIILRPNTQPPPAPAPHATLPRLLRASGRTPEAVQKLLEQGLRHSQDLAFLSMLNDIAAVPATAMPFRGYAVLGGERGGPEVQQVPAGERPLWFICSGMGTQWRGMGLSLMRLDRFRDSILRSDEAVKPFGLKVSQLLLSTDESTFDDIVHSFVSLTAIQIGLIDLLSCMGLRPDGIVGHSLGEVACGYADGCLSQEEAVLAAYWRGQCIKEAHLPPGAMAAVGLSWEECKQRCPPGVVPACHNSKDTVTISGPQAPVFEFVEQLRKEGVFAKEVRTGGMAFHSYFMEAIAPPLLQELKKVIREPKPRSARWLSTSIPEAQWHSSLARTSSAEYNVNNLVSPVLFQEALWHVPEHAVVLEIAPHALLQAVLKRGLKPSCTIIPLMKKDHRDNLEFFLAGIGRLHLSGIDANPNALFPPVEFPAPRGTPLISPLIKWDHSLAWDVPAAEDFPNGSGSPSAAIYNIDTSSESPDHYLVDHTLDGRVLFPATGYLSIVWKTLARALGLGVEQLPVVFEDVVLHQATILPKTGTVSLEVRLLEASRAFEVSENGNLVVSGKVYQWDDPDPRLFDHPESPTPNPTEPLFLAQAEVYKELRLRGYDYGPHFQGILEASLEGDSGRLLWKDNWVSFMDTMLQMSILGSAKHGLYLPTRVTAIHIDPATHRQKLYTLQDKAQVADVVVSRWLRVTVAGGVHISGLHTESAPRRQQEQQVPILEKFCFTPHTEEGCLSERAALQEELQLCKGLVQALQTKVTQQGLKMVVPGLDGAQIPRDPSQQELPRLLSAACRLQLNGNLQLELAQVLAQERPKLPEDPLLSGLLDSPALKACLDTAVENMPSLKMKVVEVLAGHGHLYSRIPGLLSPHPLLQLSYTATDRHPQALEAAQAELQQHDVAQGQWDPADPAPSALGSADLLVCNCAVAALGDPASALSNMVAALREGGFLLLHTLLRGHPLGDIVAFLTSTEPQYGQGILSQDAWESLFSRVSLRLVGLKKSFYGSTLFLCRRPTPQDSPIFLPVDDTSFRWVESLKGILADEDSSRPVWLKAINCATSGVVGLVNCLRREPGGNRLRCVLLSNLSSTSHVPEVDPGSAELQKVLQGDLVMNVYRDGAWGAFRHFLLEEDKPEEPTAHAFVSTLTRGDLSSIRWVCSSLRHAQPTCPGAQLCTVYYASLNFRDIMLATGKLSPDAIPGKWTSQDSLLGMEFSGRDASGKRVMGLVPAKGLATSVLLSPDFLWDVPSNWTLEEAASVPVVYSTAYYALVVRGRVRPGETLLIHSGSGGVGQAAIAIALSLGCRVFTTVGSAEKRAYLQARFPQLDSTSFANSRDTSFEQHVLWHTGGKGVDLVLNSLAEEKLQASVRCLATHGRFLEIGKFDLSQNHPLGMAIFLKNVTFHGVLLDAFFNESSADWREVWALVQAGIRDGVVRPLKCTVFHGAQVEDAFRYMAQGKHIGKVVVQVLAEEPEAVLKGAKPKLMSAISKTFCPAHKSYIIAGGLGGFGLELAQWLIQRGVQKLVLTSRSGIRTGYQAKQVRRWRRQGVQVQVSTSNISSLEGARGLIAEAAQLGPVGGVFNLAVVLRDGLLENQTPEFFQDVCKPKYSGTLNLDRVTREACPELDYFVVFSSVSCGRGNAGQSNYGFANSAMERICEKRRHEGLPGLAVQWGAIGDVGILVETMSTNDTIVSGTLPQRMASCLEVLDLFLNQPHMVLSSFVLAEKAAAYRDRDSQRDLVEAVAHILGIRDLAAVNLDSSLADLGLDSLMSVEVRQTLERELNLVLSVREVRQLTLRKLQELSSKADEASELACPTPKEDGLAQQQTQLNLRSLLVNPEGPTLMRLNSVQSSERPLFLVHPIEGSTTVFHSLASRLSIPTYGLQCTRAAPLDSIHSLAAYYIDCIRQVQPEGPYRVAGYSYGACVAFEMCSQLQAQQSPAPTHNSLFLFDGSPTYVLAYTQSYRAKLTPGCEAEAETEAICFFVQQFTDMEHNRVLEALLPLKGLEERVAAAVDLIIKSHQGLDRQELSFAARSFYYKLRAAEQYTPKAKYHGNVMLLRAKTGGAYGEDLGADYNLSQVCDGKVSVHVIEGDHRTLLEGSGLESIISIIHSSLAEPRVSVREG
Sequence of Paired box protein Pax-8 (Q06710 whole entry, the tested form may be a part): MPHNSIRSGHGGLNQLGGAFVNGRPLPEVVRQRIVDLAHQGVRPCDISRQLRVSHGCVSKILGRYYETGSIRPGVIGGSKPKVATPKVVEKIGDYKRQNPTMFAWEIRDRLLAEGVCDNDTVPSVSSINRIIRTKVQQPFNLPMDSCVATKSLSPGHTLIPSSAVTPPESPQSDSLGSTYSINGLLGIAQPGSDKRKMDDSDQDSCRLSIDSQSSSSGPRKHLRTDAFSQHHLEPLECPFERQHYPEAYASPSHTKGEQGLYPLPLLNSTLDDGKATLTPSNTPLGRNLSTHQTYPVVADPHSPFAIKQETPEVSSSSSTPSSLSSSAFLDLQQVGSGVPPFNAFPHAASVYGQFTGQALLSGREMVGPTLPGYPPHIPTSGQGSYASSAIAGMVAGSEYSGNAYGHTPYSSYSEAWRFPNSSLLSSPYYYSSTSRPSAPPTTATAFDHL

## CCCCCn1c(CN2CCN(c3cccc(Cl)c3)CC2)nc2c1c(=O)[nH]c(=O)n2C
[1]
  CC50: > 40 µM (active)

## O=C1NC(=S)S/C1=C\c1cc2ccccc2nc1N1CCCCC1
[2]
  IC50: 1.63 µM (not active)
[3]
  AC50: 3.98 µM (active)
[4]
  IC50: 46 µM (inactive)
[5]
  IC50: 11.2 µM (active)
[6]
  AC50: 11.1 µM (active)

## CCOc1ccc(C(=O)/C=C/c2cc(OC)c(OC)c(OC)c2)cc1
[7]
  EC50: 11.5 µM (active)
[8]
  IC50: 5.97 µM (active)
[9]
  IC50: 14.7 µM (active)
[10]
  IC50: 5.02 µM (active)

## Oc1ccnc2ccc(Cl)cc12
[11]
  AC50: 13.6 µM (active)

## Cc1c(NS(=O)(=O)c2ccc3c(c2)OCCO3)cccc1-c1nc2cccnc2s1
[7]
  EC50: 4.14 µM (active)
[8]
  IC50: 5.27 µM (active)
[9]
  IC50: 10.9 µM (active)
[10]
  IC50: 4.02 µM (active)

## Cc1oc(-c2cccc(Cl)c2)nc1CN1CCC(C(=O)N2CCN(c3ccccc3F)CC2)CC1
[1]
  CC50: 28.9 µM (active)
[12]
  EC50: 15.5 µM (active)
[13]
  EC50: 14.5 µM (active)

## Cc1cc(C(=O)CCl)c(C)n1-c1cccc([N+](=O)[O-])c1
[1]
  CC50: 13.5 µM (active)

## CC(C)(C)c1ccc(C(=O)NCCOc2ccccc2)cc1
[14]
  IC50: 5.62 µM (active)
[15]
  IC50: > 100 µM (inactive)
[16]
  IC50: > 100 µM (inactive)

## C[C@@H]1CN([C@@H](C)CO)C(=O)Cc2cc(NS(=O)(=O)c3ccc(F)cc3)ccc2O[C@H]1CN(C)Cc1ccc(Oc2ccccc2)cc1
[17]
  AC50: 1.96 µM (active)
[18]
  AC50: 5.32 µM (active)

## C[C@H](CO)N1C[C@H](C)[C@H](CN(C)C(=O)N[C@H](C)c2ccccc2)OCc2ccccc2-c2c(n(C)c3ccccc23)C1=O
[19]
  AC50: 0.975 µM (active)
[20]
  AC50: 64.6 µM (active)
[21]
  AC50: 1.62 µM (active)
[22]
  AC50: 1.53 µM (active)
[23]
  AC50: 1.07 µM (active)

## CCC(=O)Nc1ccc2c(c1)OC[C@H](C)N(CC1CCCCC1)C[C@H](C)[C@@H](OC)CN(C)C2=O
[19]
  AC50: 2.93 µM (active)
[20]
  AC50: 55.6 µM (active)
[21]
  AC50: 2.21 µM (active)
[23]
  AC50: 4.48 µM (active)
